Usually IC50 stands for the concentration that inhibits the measured activity by half.

Some results are limits rather than exact numbers.

These results are taken from US9181273B2, “Morpholine-spirocyclic piperidine amides as modulators of ion channels” (Vertex Pharmaceuticals Incorporated, priority 2011, dated 2015).

The target of the first assay is human NaV subtype, like NaV 1.7 (Homo sapiens, UniProt Q15858). In words: E-VIPR optical membrane potential assay with electrical stimulation. The assay is classed as cell-based.
Sequence of human NaV subtype, like NaV 1.7 (Q15858 whole entry): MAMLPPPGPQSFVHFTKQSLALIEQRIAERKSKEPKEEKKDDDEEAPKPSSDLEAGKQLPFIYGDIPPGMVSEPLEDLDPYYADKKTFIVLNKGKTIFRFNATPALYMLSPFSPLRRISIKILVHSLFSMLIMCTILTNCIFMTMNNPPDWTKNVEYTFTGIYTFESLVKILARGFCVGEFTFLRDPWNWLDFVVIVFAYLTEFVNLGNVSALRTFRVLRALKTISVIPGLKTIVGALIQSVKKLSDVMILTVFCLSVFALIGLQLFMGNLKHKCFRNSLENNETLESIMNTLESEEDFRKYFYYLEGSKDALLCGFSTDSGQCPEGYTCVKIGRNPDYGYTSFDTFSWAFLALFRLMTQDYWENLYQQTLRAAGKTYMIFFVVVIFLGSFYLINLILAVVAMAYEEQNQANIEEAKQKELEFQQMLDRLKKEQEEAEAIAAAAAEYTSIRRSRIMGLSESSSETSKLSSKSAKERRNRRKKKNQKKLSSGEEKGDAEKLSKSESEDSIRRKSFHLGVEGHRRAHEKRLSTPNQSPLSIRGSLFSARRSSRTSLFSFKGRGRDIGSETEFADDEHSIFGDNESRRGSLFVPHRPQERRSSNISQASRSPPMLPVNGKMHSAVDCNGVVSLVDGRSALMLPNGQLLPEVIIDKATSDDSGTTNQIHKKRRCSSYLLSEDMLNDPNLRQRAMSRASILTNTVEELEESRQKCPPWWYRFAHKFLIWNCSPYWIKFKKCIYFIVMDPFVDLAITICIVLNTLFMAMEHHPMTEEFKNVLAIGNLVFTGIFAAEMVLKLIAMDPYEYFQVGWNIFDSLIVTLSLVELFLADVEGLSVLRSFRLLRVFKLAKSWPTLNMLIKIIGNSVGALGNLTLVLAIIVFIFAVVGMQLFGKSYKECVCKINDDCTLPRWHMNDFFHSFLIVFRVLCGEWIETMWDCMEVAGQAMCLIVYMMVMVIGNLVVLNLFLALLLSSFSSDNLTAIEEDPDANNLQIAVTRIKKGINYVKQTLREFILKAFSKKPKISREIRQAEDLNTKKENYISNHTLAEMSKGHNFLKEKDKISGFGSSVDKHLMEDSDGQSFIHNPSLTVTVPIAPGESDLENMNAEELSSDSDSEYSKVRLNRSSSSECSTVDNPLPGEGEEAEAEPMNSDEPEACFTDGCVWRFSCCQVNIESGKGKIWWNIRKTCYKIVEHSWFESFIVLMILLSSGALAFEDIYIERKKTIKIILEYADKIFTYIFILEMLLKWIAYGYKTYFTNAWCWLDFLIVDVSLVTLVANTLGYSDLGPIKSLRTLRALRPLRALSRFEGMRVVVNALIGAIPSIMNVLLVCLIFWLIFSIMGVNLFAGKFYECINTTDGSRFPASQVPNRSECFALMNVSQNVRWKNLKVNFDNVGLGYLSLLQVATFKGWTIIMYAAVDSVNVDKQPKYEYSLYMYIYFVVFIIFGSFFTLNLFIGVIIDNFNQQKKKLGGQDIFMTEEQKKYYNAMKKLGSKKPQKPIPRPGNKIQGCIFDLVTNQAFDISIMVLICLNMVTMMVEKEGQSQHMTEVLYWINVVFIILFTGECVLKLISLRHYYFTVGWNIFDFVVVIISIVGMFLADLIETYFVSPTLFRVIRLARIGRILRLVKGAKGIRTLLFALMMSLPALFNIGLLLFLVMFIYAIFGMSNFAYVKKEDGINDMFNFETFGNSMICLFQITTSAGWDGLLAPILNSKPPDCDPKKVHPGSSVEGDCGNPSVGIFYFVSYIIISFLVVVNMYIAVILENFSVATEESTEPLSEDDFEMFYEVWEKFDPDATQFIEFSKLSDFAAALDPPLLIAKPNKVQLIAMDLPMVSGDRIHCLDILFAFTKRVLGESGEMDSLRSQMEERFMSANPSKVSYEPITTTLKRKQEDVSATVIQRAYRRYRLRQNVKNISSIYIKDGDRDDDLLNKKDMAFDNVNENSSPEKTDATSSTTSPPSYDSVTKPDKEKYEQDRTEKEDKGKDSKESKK
Details: not given
`COCC1CN(c2ncccn2)CC2(CCN(C(=O)c3ccc(C(C)(C)C)c(OC)c3)CC2)O1` (centres unmarked) [Compound 191] yielded a concentration for half-maximal inhibition (IC50) below 2000 nM.

For `Cc1cc(C(=O)N2CCC3(CC2)CN(CC(F)(F)F)CC(c2cc[nH]n2)O3)ccc1OC(C)C` (centres unmarked) [Compound 211], the IC50 is below 2000 nM.

Staying with this assay, now noted: active against one or more sodium channels; assay and NaV subtype not specified for Table 3; read-out: IC50 Binned Activity Data.
Turning to `O=C(c1cccc(Cl)c1)N1CCC2(CC1)CN(CC(F)(F)F)CC(c1ccccc1)O2` (centres unmarked) [Compound 155], the IC50 was above 5000 nM.

Turning to `CC(C)Oc1ccc(C(=O)N2CCC3(CC2)CN(CC(F)F)CC(c2ccc(F)cc2)O3)cc1Cl` (centres unmarked) [Compound 156], the IC50 is below 2000 nM.

On to `Cc1nc(C(=O)N2CCC3(CC2)CN(CC(F)F)CC(c2ccccc2)O3)ccc1C#N` (centres unmarked) [Compound 157], for which the IC50 is above 5000 nM.

On to `CCN1CC(c2ccccc2)OC2(CCN(C(=O)c3ccc(C(C)(C)O)cc3)CC2)C1` (centres unmarked) [Compound 158], for which the IC50 was above 5000 nM.

As for `CC(C)Oc1ccc(C(=O)N2CCC3(CC2)CN(CC(F)F)CC(c2ncc(C(C)C)o2)O3)cc1F` (centres unmarked) [Compound 159], the IC50 was above 5000 nM.

For the molecule `COCC1CN(C(C)(C)C)CC2(CCN(C(=O)c3ccc(OC(C)C)c(C)c3)CC2)O1` (centres unmarked) [Compound 160], the IC50 was 2000 to 5000 nM.

Turning to `COCC1CN(c2ncccn2)CC2(CCN(C(=O)c3ccc(C(C)(C)O)cc3)CC2)O1` (centres unmarked) [Compound 161], the IC50 is above 5000 nM.

Take `COc1cc(C(=O)N2CCC3(CC2)CN(CC(F)F)CC(c2cccc(C)n2)O3)cc(F)c1OC(C)C` (centres unmarked) [Compound 162]: the IC50 was above 5000 nM.

With `Cc1cc(C(=O)N2CCC3(CC2)CNCC(c2ccccc2)O3)ccc1OC(C)C` (centres unmarked) [Compound 163], the IC50 was above 5000 nM.

As for `COCC1CN(c2ncccn2)CC2(CCN(C(=O)c3ccccc3OC(F)F)CC2)O1` (centres unmarked) [Compound 164], the IC50 was above 5000 nM.

`CC(C)CS(=O)(=O)c1ccc(C(=O)N2CCC3(CC2)CN(CC(F)(F)F)CC(c2ccccc2)O3)cc1` (centres unmarked) [Compound 165]: the IC50 was below 2000 nM.

As for `CCN1CC(c2ccccc2)OC2(CCN(C(=O)c3ccc(OC(C)C)c(CO)c3)CC2)C1` (centres unmarked) [Compound 166], the IC50 was 2000 to 5000 nM.

In the case of `CCN1CC(c2ccccc2)OC2(CCN(C(=O)c3ccc(S(=O)(=O)NC4CC4)cc3)CC2)C1` (centres unmarked) [Compound 167], the IC50 is above 5000 nM.

Turning to `Cc1cc(C(=O)N2CCC3(CC2)CN(CC(F)F)CC(c2ccccc2)O3)ccc1C(C)(C)O` (centres unmarked) [Compound 168], the IC50 was below 2000 nM.

As for `COCC1CN(Cc2ccccc2)CC2(CCN(C(=O)c3ccc(OC(C)C)c(C)c3)CC2)O1` (centres unmarked) [Compound 169], the IC50 was below 2000 nM.

As for `Cc1cc(C(=O)N2CCC3(CC2)CN(CC(F)F)CC(c2ccc(F)cc2)O3)ccc1OCC(C)(C)O` (centres unmarked) [Compound 170], the IC50 was below 2000 nM.

Turning to `Cc1cc(C(=O)N2CCC3(CC2)CN(c2ncccn2)CC(COC(F)F)O3)ccc1OC(C)C` (centres unmarked) [Compound 171], the IC50 was below 2000 nM.

`COc1cc(C(=O)N2CCC3(CC2)CN(CC(F)(F)F)CC(c2ccccc2)O3)ccc1S(C)(=O)=O` (centres unmarked) [Compound 172]: the IC50 was above 5000 nM.

In the case of `COCC1CN(c2ncccn2)CC2(CCN(C(=O)c3ccc(OC(C)C)c(OC)c3)CC2)O1` (centres unmarked) [Compound 173], the IC50 was in the range of 2000 to 5000 nM.

Take `COCCCN1CC(COC)OC2(CCN(C(=O)c3ccc(OC(C)C)c(C)c3)CC2)C1` (centres unmarked) [Compound 175]: the IC50 is below 2000 nM.

Turning to `CCC1CN(c2ccccn2)CC2(CCN(C(=O)c3ccc(C4(O)CCC4)c(C)c3)CC2)O1` (centres unmarked) [Compound 176], the IC50 was below 2000 nM.

Turning to `CC(C)Oc1ccc(C(=O)N2CCC3(CC2)CN(CC(F)(F)F)CC(c2ccccc2)O3)nc1` (centres unmarked) [Compound 177], the IC50 was below 2000 nM.

As for `COCC1CN(CC(F)F)CC2(CCN(C(=O)c3ccc(OC(C)C)c(C)c3)CC2)O1` (centres unmarked) [Compound 178], the IC50 is below 2000 nM.

Take `Cc1cc(C(=O)N2CCC3(CC2)CN(Cc2ccccc2)CC(C(C)(C)O)O3)ccc1OC(C)C` (centres unmarked) [Compound 179]: the IC50 was above 5000 nM.

In the case of `COCC1CN(c2nccs2)CC2(CCN(C(=O)c3ccc(OC(C)C)c(C)c3)CC2)O1` (centres unmarked) [Compound 180], the IC50 is below 2000 nM.

As for `Cc1cc(C(=O)N2CCC3(CC2)CN(CC(F)(F)F)CC(Cn2cccn2)O3)ccc1OC(C)C` (centres unmarked) [Compound 181], the IC50 was above 5000 nM.

For the molecule `COCC1CN(c2ccc(OC)cc2)CC2(CCN(C(=O)c3ccc(OC(C)C)c(C)c3)CC2)O1` (centres unmarked) [Compound 183], the IC50 is below 2000 nM.

On to `COCC1CN(CCSC)CC2(CCN(C(=O)c3ccc(OC(C)C)c(C)c3)CC2)O1` (centres unmarked) [Compound 184], for which the IC50 was below 2000 nM.

For `CC#CCN1CC2(CCN(C(=O)c3ccc(OC(C)C)c(C)c3)CC2)OCC1(C)C` [Compound 185], the IC50 was above 5000 nM.

On to `COc1ccc(C(=O)N2CCC3(CC2)CN(CCC(C)C)C(=O)C(c2ccccc2)O3)cc1C(F)(F)F` (centres unmarked) [Compound 186], for which the IC50 was below 2000 nM.

Consider `COCC1CN(c2ncc(F)cn2)CC2(CCN(C(=O)c3ccc(OC(C)C)c(C)c3)CC2)O1` (centres unmarked) [Compound 187], for which the IC50 is below 2000 nM.

For the molecule `COCCN1CC(COC)OC2(CCN(C(=O)c3ccc(OC(C)C)c(C)c3)CC2)C1` (centres unmarked) [Compound 188], the IC50 is 2000 to 5000 nM.

With `Cc1cc(C(=O)N2CCC3(CC2)CN(CC(F)(F)F)CC(c2ccccc2)O3)ccc1S(C)(=O)=O` (centres unmarked) [Compound 189], the IC50 is below 2000 nM.

For `CC(C)Oc1ccc(C(=O)N2CCC3(CC2)CN(CC(F)F)CC(c2ccccc2Cl)O3)cc1F` (centres unmarked) [Compound 190], the IC50 was below 2000 nM.

Turning to `CCN1CC(c2ccccc2)OC2(CCN(C(=O)c3ccc(OC(C)C)c(OC)c3)CC2)C1` (centres unmarked) [Compound 192], the IC50 was below 2000 nM.

With `COCC1CN(CC(=O)C(C)(C)C)CC2(CCN(C(=O)c3ccc(OC(C)C)c(C)c3)CC2)O1` (centres unmarked) [Compound 193], the IC50 is below 2000 nM.

On to `CC(C)Oc1ccc(C(=O)N2CCC3(CC2)CN(CC(F)(F)F)CC(c2ccccc2)O3)cc1CO` (centres unmarked) [Compound 194], for which the IC50 was below 2000 nM.

Take `Cc1cccc(C2CN(CC(F)F)CC3(CCN(C(=O)c4ccc(OC(C)C)c(F)c4)CC3)O2)n1` (centres unmarked) [Compound 195]: the IC50 is below 2000 nM.

Regarding `Cc1cnc(C2CN(CC(F)(F)F)CC3(CCN(C(=O)c4ccc(OC(C)C)c(C)c4)CC3)O2)s1` (centres unmarked) [Compound 196], the IC50 was below 2000 nM.

In the case of `COCC1CN(c2ncccn2)CC2(CCN(C(=O)c3ccc(C(O)C(C)C)cc3)CC2)O1` (centres unmarked) [Compound 197], the IC50 fell in the range of 2000 to 5000 nM.

For the molecule `COCC1CN(c2ncccn2)CC2(CCN(C(=O)c3ccc(S(=O)(=O)NC4CC4)cc3)CC2)O1` (centres unmarked) [Compound 198], the concentration for half-maximal inhibition (IC50) is above 5000 nM.

Regarding `Cc1cc(C(=O)N2CCC3(CC2)CN(CC(F)(F)F)CC(c2ccccc2)O3)ccc1OCCO` (centres unmarked) [Compound 199], the IC50 was 2000 to 5000 nM.

With `Cc1cc(C(=O)N2CCC3(CC2)CN(CC(F)(F)F)CC(c2ccccc2)O3)ccc1S(=O)(=O)C(C)C` (centres unmarked) [Compound 200], the IC50 is below 2000 nM.

Take `COCC1CN(C2CCCCCC2)CC2(CCN(C(=O)c3ccc(OC(C)C)c(C)c3)CC2)O1` (centres unmarked) [Compound 201]: the IC50 is below 2000 nM.

With `Cc1cc(C(=O)N2CCC3(CC2)CN(CC(F)F)CC(c2ccc(F)cc2)O3)ccc1S(C)(=O)=O` (centres unmarked) [Compound 202], the 50% inhibitory concentration (IC50) is above 5000 nM.

`CCOc1cc(C(=O)N2CCC3(CC2)CN(CC)CC(c2ccccc2)O3)ccc1CO` (centres unmarked) [Compound 203]: the IC50 fell in the range of 2000 to 5000 nM.

For `COCC1CN(C2CCCCC2)CC2(CCN(C(=O)c3ccc(OC(C)C)c(C)c3)CC2)O1` (centres unmarked) [Compound 204], the IC50 was below 2000 nM.

As for `CCCN1CC(COC)OC2(CCN(C(=O)c3ccc(OC(C)C)c(C)c3)CC2)C1` (centres unmarked) [Compound 205], the IC50 was below 2000 nM.

In the case of `COCC1CN(CC2CCCCC2)CC2(CCN(C(=O)c3ccc(OC(C)C)c(C)c3)CC2)O1` (centres unmarked) [Compound 206], the IC50 is below 2000 nM.

In the case of `COCC1CN(c2ncccn2)CC2(CCN(C(=O)c3ccc(S(=O)(=O)C4CC4)cc3)CC2)O1` (centres unmarked) [Compound 208], the IC50 is above 5000 nM.

As for `Cc1cc(C(=O)N2CCC3(CC2)CN(CC(F)F)CC(c2ncco2)O3)ccc1OC(C)C` (centres unmarked) [Compound 209], the IC50 was below 2000 nM.

`COc1cc(C(=O)N2CCC3(CC2)CN(CC(F)F)CC(c2cc[nH]n2)O3)ccc1OC(C)C` (centres unmarked) [Compound 210]: the IC50 is above 5000 nM.

As to `Cc1nc(C(=O)N2CCC3(CC2)CN(CC#N)CC(c2ccccc2)O3)ccc1OC(C)C` (centres unmarked) [Compound 212], the IC50 is below 2000 nM.

For the molecule `CC(C)Oc1ccc(C(=O)N2CCC3(CC2)CN(CC(F)(F)F)CC(c2ccccc2)O3)cc1Cl` (centres unmarked) [Compound 213], the IC50 was below 2000 nM.

Turning to `CCc1cnc(C2CN(CC(F)F)CC3(CCN(C(=O)c4ccc(OC(C)C)c(C)c4)CC3)O2)o1` (centres unmarked) [Compound 214], the IC50 lay in the range of 2000 to 5000 nM.

With `COCC1CN(CC(=O)OC)CC2(CCN(C(=O)c3ccc(OC(C)C)c(C)c3)CC2)O1` (centres unmarked) [Compound 215], the IC50 fell in the range of 2000 to 5000 nM.

Regarding `COCC1CN(c2ncccn2)CC2(CCN(C(=O)c3ccc(OCC(C)(C)O)c(C)c3)CC2)O1` (centres unmarked) [Compound 216], the IC50 was in the range of 2000 to 5000 nM.

For the molecule `CC#CCN1CC(CC)OC2(CCN(C(=O)c3ccc(OCCC)c(C)c3)CC2)C1` (centres unmarked) [Compound 217], the IC50 was below 2000 nM.

In the case of `CC#CCN1CC(COC)OC2(CCN(C(=O)c3ccc(OC(C)C)c(C)c3)CC2)C1` (centres unmarked) [Compound 218], the IC50 was below 2000 nM.

Take `COc1cc(C(=O)N2CCC3(CC2)CN(CC(F)F)CC(c2ccccc2)O3)ccc1OC(C)C` (centres unmarked) [Compound 219]: the IC50 was below 2000 nM.

For the molecule `COCC1CN(C2CCC(F)(F)CC2)CC2(CCN(C(=O)c3ccc(OC(C)C)c(C)c3)CC2)O1` (centres unmarked) [Compound 220], the IC50 is below 2000 nM.

As for `CC(C)Oc1ccc(C(=O)N2CCC3(CC2)CN(CC(F)F)CC(c2ccccn2)O3)cc1F` (centres unmarked) [Compound 221], the IC50 is below 2000 nM.

`CC(C)Oc1ccc(C(=O)N2CCC3(CC2)CN(CC(F)F)CC(c2ccccn2)O3)cc1Cl` (centres unmarked) [Compound 222]: the IC50 was below 2000 nM.

For `COCC1CN(c2cccc(C(F)(F)F)c2)CC2(CCN(C(=O)c3ccc(C4(O)CCC4)cc3)CC2)O1` (centres unmarked) [Compound 223], the IC50 was below 2000 nM.

With `COc1cc(C(=O)N2CCC3(CC2)CN(CC(F)F)CC(c2ccccc2)O3)ccc1C(C)(C)O` (centres unmarked) [Compound 224], the IC50 is below 2000 nM.

Turning to `COCC1CN(c2cccc(C(F)(F)F)c2)CC2(CCN(C(=O)c3ccc(OCC(C)(C)O)c(C)c3)CC2)O1` (centres unmarked) [Compound 225], the IC50 is below 2000 nM.
